The text below walks through data of paper PMC11563871, “The human ATAD5 has evolved unique structural elements to function exclusively as a PCNA unloader” (Nature Structural & Molecular Biology, 2024).

For one assay, the system named is T1, ATAD5-RFC.
T1 construct: N-terminally truncated ATAD5 (812-end of 1844), N-terminal 3xFLAG and C-terminal 6xHis, heteropentamer with RFC2-RFC5, insect cells (Sf9/Hi5)
Put plainly: malachite green phosphate ATPase assay. It counts as biochemical, Homo sapiens. Particulars: 1 mM ATP, 0.25 μM ATAD5-RFC, 2 mM MgCl2, pH 7.6, room temperature; alone or with PCNA and/or DNA.

Assay [1] deals with T2, human ATAD5-RFC–PCNA complex.
T2 construct: N-terminally truncated ATAD5 (812-end of 1844), N-terminal 3xFLAG and C-terminal 6xHis, with RFC2-RFC5, insect cells (Sf9/Hi5); PCNA homotrimer from E. coli, His tag cut by thrombin; with Proliferating cell nuclear antigen
T2 sequence (Q96QE3 812-1844): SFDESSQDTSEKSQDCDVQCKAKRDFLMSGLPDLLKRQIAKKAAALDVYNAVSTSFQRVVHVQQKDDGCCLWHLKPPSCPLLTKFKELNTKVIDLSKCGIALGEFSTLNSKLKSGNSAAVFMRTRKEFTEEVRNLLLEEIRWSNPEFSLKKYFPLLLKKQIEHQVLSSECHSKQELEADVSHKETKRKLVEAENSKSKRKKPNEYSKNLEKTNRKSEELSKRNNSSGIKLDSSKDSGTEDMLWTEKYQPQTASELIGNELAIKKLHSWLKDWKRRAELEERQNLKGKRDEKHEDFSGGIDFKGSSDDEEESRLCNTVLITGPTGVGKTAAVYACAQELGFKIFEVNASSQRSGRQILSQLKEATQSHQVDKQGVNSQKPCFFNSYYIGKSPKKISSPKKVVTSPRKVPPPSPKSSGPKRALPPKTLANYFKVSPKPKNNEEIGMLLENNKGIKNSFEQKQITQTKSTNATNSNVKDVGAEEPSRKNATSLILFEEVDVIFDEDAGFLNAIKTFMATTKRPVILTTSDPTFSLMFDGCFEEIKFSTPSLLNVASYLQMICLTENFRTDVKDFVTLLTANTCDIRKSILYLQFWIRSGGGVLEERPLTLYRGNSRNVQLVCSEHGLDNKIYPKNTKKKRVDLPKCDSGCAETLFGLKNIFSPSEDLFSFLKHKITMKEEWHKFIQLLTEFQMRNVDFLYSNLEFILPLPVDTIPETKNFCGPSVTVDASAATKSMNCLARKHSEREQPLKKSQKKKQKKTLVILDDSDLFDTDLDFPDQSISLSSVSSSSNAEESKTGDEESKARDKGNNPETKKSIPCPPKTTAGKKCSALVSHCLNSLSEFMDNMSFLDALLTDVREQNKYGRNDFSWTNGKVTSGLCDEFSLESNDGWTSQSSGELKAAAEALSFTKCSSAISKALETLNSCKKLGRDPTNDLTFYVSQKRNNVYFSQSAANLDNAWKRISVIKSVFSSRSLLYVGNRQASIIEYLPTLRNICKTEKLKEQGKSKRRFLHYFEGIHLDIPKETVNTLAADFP
T2 sequence (P35250 whole entry, further chain, the tested form may be a part): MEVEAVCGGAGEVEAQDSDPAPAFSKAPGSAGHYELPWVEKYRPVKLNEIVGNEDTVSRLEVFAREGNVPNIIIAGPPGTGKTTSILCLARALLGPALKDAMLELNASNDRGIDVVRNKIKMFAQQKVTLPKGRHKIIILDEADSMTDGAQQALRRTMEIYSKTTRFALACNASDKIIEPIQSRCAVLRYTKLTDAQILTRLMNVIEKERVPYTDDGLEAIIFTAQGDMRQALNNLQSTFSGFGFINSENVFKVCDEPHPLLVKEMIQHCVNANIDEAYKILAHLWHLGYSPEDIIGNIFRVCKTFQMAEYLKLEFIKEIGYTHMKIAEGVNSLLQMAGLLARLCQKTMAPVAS
T2 sequence (P40938 whole entry, further chain, the tested form may be a part): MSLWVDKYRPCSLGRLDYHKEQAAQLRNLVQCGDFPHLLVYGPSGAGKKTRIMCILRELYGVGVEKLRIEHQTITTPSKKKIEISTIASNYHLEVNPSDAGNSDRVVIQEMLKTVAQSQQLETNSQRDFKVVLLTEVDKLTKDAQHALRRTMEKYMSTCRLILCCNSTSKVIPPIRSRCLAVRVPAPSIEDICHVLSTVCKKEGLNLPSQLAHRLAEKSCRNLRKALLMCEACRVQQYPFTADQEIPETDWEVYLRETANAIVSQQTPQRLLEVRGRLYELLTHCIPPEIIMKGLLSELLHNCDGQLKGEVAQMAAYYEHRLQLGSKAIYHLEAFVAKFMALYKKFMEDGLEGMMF
T2 sequence (P35249 whole entry, further chain, the tested form may be a part): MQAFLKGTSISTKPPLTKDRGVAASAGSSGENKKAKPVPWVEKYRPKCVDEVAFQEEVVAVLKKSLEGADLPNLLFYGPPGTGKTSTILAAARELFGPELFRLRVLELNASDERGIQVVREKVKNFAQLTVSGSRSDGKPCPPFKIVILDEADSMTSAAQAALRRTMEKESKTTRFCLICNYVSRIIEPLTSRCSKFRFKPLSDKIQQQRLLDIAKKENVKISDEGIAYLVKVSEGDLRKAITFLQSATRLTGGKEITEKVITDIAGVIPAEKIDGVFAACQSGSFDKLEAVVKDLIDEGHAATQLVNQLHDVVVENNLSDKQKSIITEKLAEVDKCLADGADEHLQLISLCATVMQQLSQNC
T2 sequence (P40937 whole entry, further chain, the tested form may be a part): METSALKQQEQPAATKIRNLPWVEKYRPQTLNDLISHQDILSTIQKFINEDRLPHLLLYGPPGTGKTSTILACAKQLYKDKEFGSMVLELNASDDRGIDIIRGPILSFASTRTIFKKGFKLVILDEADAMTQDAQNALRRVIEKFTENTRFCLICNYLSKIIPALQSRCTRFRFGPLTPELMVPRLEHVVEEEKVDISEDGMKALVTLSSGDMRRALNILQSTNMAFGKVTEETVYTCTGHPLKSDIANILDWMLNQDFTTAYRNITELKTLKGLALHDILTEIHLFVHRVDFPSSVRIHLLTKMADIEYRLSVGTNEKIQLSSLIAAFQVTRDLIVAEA
T2 sequence (P12004 whole entry partner, the tested form may be a part): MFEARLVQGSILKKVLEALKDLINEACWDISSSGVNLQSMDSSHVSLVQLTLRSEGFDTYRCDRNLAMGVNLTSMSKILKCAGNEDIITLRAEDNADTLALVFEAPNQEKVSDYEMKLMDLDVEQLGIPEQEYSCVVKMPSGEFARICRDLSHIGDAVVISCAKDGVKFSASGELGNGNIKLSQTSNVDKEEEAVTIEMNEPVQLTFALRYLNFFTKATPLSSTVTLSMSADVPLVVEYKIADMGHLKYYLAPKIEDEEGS
The assay is described as follows: cryo-EM structure. It is filed as binding. Particulars: 0.5 mM ATPγS, Mg2+; bound at ATAD5, RFC2, RFC5 and (states 1 and 2) RFC4.

T1 sequence (Q96QE3 812-1844): as the sequence (Q96QE3 812-1844) above
T1 sequence (P35250 whole entry, further chain, the tested form may be a part): as the sequence (P35250 whole entry, further chain, the tested form may be a part) above
T1 sequence (P40938 whole entry, further chain, the tested form may be a part): as the sequence (P40938 whole entry, further chain, the tested form may be a part) above
T1 sequence (P35249 whole entry, further chain, the tested form may be a part): as the sequence (P35249 whole entry, further chain, the tested form may be a part) above
T1 sequence (P40937 whole entry, further chain, the tested form may be a part): as the sequence (P40937 whole entry, further chain, the tested form may be a part) above

Consider `Nc1ncnc2c1ncn2[C@@H]1O[C@H](COP(=O)(O)OP(=O)(O)OP(=O)(O)O)[C@@H](O)[C@H]1O` [ATP], for which, in the assay on ATAD5-RFC, the ATP hydrolyzed/min result was “ATP hydrolyzed/min by ATAD5-RFC alone or with PCNA and/or DNA”.

Regarding `Nc1ncnc2c1ncn2[C@@H]1O[C@H](COP(=O)(O)OP(=O)(O)OP(O)(O)=S)[C@@H](O)[C@H]1O` [ATPγS], in assay [1], the cryo-EM structure entry is “four subunits (ATAD5, RFC2, RFC5 and RFC4, that is, subunits A–D) each bound an ATPγS”.
